The results in this text go back to ChEMBL document CHEMBL4680320, “Exploiting the antiproliferative potential of spiropyrazoline oxindoles in a human ovarian cancer cell line” (Bioorg Med Chem, 2021).

Test [1] concerns Fibroblast. The test is described as follows: Cytotoxicity against human fibroblasts cells assessed as cell viability incubated for 48 hrs by MTS assay. The test is classed as cell-based. Background: Formazan colour is commonly taken as a measure of viable cells.
The test system of test [2] is A2780. Put plainly: Antiproliferative activity against human A2780 cells assessed as cell viability incubated for 48 hrs by MTS assay. The test is classed as functional, cell-based. The conditions noted are these: A2780, 48 h.
The subject of test [3] is MDA-MB-453. The test is described as follows: Antiproliferative activity against human MDA-MB 453 cells assessed as reduction in cell viability incubated for 48 hrs by MTS assay. Type of test: functional, cell-based. The settings on record: MDA-MB-453, 48 h.
In test [4] the test system is A2780. The test is described as follows: Induction of apoptosis in human A2780 cells assessed as PARP level at 8.5 uM after 48 hrs by Western blot analysis. Type of test: functional, cell-based.
Test [5] concerns A2780. Put plainly: Induction of mitochondrial membrane potential loss in human A2780 cells at 8.5 uM after 48 hrs by JC-1 staining based flow cytometry. The test is classed as functional, cell-based. In general terms: In flow cytometry, cells or beads pass a laser one at a time.
The subject of test [6] is A2780. The test is described as follows: Induction of apoptosis in human A2780 cells assessed as apoptotic cells at 8.5 uM measured after 48 hrs by Hoechst staining based fluorescence microscopic analysis relative to control. Type of test: functional.
Test [7] has as its system A2780. The test is described as follows: Induction of apoptosis in human A2780 cells assessed as late apoptotic cells at 8.5 uM measured after 48 hrs by Annexin-V/propidium iodide staining-based flow cytometric analysis (reference value: 6%). The test is classed as functional.
Test [8] has as its system A2780. Put plainly: Induction of apoptosis in human A2780 cells assessed as increased BAX expression at 8.5 uM after 48 hrs by Western blot analysis. Type of test: functional, cell-based.
The test system of test [9] is A2780. The test is described as follows: Induction of apoptosis in human A2780 cells assessed as decreased […] expression at 8.5 uM after 48 hrs by Western blot analysis. Type of test: functional, cell-based.
The test system of test [10] is A2780. The test is described as follows: Induction of intracellular reactive oxygen species production in human A2780 cells at 8.5 uM measured after 48 hrs by DCFH-DA probe based fluorescence microscopic analysis. The test is classed as functional, cell-based.
The subject of test [11] is Cancer cell lines. The test is described as follows: Induction of apoptosis in human A2780 cells assessed as DNA damage after 48 hrs by fluorescence microscopic analysis. The test is classed as functional, cell-based.
Test [12] concerns DNA. The test is described as follows: Induction of DNA damage of Escherichia coli pUC18 plasmid DNA at 8.5 uM after 24 hrs by agarose gel electrophoresis method. Type of test: nucleic-acid assay.
Test [13] concerns Calf thymus DNA. Put plainly: Binding affinity to calf thymus DNA after 24 hrs by UV-vis spectroscopy. The conditions noted are these: Bos taurus.
Test [14] concerns A2780. Put plainly: Induction of necrosis in human A2780 cells at 8.5 uM measured after 48 hrs by Annexin-V/propidium iodide staining-based flow cytometric analysis. Type of test: functional, cell-based.
For test [15], the system named is A2780. Put plainly: Induction of autophagy in human A2780 cells assessed as autophagosome accumulation at 8.5 uM after 48 hrs by Hoechst staining based fluorescence microscopic analysis relative to control. The test is classed as functional, cell-based.
Test [16] deals with DNA. The test is described as follows: Induction of DNA damage in human A2780 cells assessed as DNA fragmentation at 8.5 uM after 48 hrs by agarose gel electrophoresis. The test is classed as cell-based.
For test [17], the system named is Calf thymus DNA. Put plainly: Binding affinity to calf thymus DNA at 100 uM by circular dichroism spectroscopy. The conditions noted are these: Bos taurus.
In test [18] the test system is A2780. The test is described as follows: Effect on cell cycle distribution in human A2780 cells at 8.5 uM measured after 4 to 24 hrs by flow cytometry. The test is classed as functional, cell-based. The conditions noted are these: time 4-24 hrs.

Activity calls are given as the source filed them. No cut-off for these calls is given here.

On to `CC(C)(C)C1=NN(c2ccccc2)[C@]2(C(=O)Nc3cc(Cl)c(F)cc32)[C@H]1c1cccc(Cl)c1`, for which the IC50 in test [1] was determined as 14.9 µM; in [2], 11.4 µM; in test [3], 14.7 µM.
`O=C1Nc2ccc(Br)cc2[C@]12[C@@H](c1ccccc1)C(c1ccccc1)=NN2c1ccccc1`: the result in test [4], in test [5], in test [8], in test [9], in test [11] and in [15] was Active. The result in test [17] was Active. Further, the IC50 is 55.2 µM in [1], 8.5 µM in test [2] and 11.3 µM in [3]. Moreover, the Activity in test [6] is listed as 31%; in test [7], 13%. The result in test [10], in test [12], in test [14], in test [16] and in test [18] was inactive. Also, the Kb in test [13] was 7.09 10^6/M.
Regarding `CC(C)(C)C1=NN(c2ccc(Cl)cc2)[C@]2(C(=O)Nc3cc(Cl)c(F)cc32)[C@H]1c1cccc(Cl)c1F`, the IC50 was determined as 12.9 µM in [1], 9.9 µM in test [2] and 15 µM in test [3].
The corresponding values for `CC(C)(C)C1=NN(c2ccccc2)[C@]2(C(=O)Nc3cc(Cl)c(F)cc32)[C@H]1c1cccc(Cl)c1F` are 17.3 µM, 11.7 µM and 16.3 µM.
In the case of `CC(C)(C)C1=NN(c2ccccc2)[C@]2(C(=O)Nc3ccc(Br)cc32)[C@H]1c1ccccc1`, the values for the IC50 in test [1], in test [2] and in [3] were 15.7 µM, 12.1 µM and 14.6 µM, respectively.
Consider `COc1cccc2c1C(=O)c1c(O)c3c(c(O)c1C2=O)C[C@@](O)(C(=O)CO)C[C@@H]3O[C@H]1C[C@H](N)[C@H](O)[C@H](C)O1` [DOXORUBICIN], for which the IC50 in [2] came to 0.6 µM.

By IC50 is commonly meant the concentration that inhibits the measured activity by half.
